{"source": "paper PMC12209991", "about": "(Clinical Pharmacology in Drug Development, 2025)", "key": {"[1]": {"assay": "Multiple ascending dose (MAD) pharmacokinetics in healthy volunteers, BID for 14 days", "type": "in vivo, human", "conditions": "human, plasma, oral; for Tmax: read-out: Tmax, median [min-max]", "protocol": "(§1) Analytes were separated by HPLC on a Waters Atlantis T3 analytical column using a gradient mobile phase (mobile phase A: 10% acetonitrile, 90% water, 10 mM ammonium acetate, 0.3% formic acid; mobile phase B: 90% acetonitrile, 10% water, 10 mM ammonium acetate, 0.3% formic acid) run at 0.4 mL/min with initial mobile phase B concentration of 30%."}, "[2]": {"assay": "Food effect (high-fat breakfast) on RBN-3143 pharmacokinetics, cross-over", "type": "in vivo, human", "conditions": "single 500 mg oral dose; for Tmax / AUC(0-inf) / AUC(0-t) / Cmax: human, plasma, po, 500 mg; for Tmax: read-out: Median Tmax", "protocol": "as §1"}, "[3]": {"assay": "Pantoprazole (PPI) effect on RBN-3143 pharmacokinetics, cross-over", "type": "in vivo, human", "conditions": "for AUC(0-inf) / AUC(0-t) / Cmax: human, plasma, po, single 500 mg oral dose", "protocol": "as §1"}, "[4]": {"biological_target": "CYP3A4 (Homo sapiens, UniProt P08684)", "sequence (P08684 whole entry)": "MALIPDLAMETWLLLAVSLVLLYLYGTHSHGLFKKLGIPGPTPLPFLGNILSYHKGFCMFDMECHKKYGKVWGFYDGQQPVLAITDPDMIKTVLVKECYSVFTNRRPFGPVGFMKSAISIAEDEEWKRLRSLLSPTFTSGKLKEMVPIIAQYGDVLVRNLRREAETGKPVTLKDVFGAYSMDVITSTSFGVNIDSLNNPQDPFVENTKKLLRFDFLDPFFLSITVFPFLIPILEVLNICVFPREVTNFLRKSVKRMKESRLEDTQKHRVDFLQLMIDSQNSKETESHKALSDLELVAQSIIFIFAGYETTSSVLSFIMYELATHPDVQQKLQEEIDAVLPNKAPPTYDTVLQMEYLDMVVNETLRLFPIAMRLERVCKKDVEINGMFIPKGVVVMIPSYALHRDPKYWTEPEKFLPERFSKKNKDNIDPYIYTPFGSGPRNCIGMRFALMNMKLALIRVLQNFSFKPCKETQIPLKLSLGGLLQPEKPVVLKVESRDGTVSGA", "assay": "In vitro metabolism", "type": "in vitro ADME", "conditions": "unpublished data"}}, "note": "Entries after “also recorded” stand apart in the source; their conditions may differ. Read-outs that look alike come from different tables or passages of the source.", "data": [{"smiles": "CC(=O)N1CCC(COc2cc(F)c3c(=O)[nH]c(CSC4CCOCC4)nc3c2)CC1", "note": "[RBN‐3143]", "values": [{"measurement": "AUC", "setting": "[1]; 300 mg, 300 mg BID, Day 14, plasma, read-out: AUC12, geometric mean (Geo CV%)", "result": 9550, "unit": "ng·h/mL"}, {"measurement": "AUC", "setting": "[1]; 300 mg, 300 mg BID, Day 14, plasma, read-out: AUC12, mean (SD)", "result": 9860, "unit": "ng·h/mL"}, {"measurement": "Cmax", "setting": "[1]; 300 mg, 300 mg BID, Day 14, plasma, read-out: Cmax, geometric mean (Geo CV%)", "result": 1420, "unit": "ng/mL"}, {"measurement": "Cmax", "setting": "[1]; 300 mg, 300 mg BID, Day 14, plasma, read-out: Cmax, mean (SD)", "result": 1470, "unit": "ng/mL"}, {"measurement": "Tmax", "setting": "[1]; 300 mg, 300 mg BID, Day 14, plasma", "result": 2, "unit": "h"}, {"measurement": "AUC", "setting": "[1]; 500 mg, 500 mg BID, Day 1, plasma, read-out: AUC12, geometric mean (Geo CV%)", "result": 8040, "unit": "ng·h/mL"}, {"measurement": "AUC", "setting": "[1]; 500 mg, 500 mg BID, Day 1, plasma, read-out: AUC12, mean (SD)", "result": 8340, "unit": "ng·h/mL"}, {"measurement": "Cmax", "setting": "[1]; 500 mg, 500 mg BID, Day 1, plasma, read-out: Cmax, geometric mean (Geo CV%)", "result": 1270, "unit": "ng/mL"}, {"measurement": "Cmax", "setting": "[1]; 500 mg, 500 mg BID, Day 1, plasma, read-out: Cmax, mean (SD)", "result": 1320, "unit": "ng/mL"}, {"measurement": "Tmax", "setting": "[1]; 500 mg, 500 mg BID, Day 1, plasma", "result": 2.52, "unit": "h"}, {"measurement": "half-life", "setting": "[1]; 500 mg, 500 mg BID, Day 1, plasma, read-out: t1/2, geometric mean (Geo CV%) (converted)", "result": 4.38, "unit": "h"}, {"measurement": "half-life", "setting": "[1]; 500 mg, 500 mg BID, Day 1, plasma, read-out: t1/2, mean (SD) (converted)", "result": 4.39, "unit": "h"}, {"measurement": "AUC", "setting": "[1]; 500 mg, 500 mg BID, Day 14, plasma, read-out: AUC12, geometric mean (Geo CV%)", "result": 12400, "unit": "ng·h/mL"}, {"measurement": "AUC", "setting": "[1]; 500 mg, 500 mg BID, Day 14, plasma, read-out: AUC12, mean (SD)", "result": 12600, "unit": "ng·h/mL"}, {"measurement": "Cmax", "setting": "[1]; 500 mg, 500 mg BID, Day 14, plasma, read-out: Cmax, geometric mean (Geo CV%)", "result": 1830, "unit": "ng/mL"}, {"measurement": "Cmax", "setting": "[1]; 500 mg, 500 mg BID, Day 14, plasma, read-out: Cmax, mean (SD)", "result": 1880, "unit": "ng/mL"}, {"measurement": "Tmax", "setting": "[1]; 500 mg, 500 mg BID, Day 14, plasma", "result": 1.5, "unit": "h"}, {"measurement": "Tmax", "setting": "[2]; after a high-fat meal", "result": 4, "unit": "h"}, {"measurement": "Tmax", "setting": "[2]; fasted state", "result": 2, "unit": "h"}, {"measurement": "AUC(0-inf)", "setting": "[2]; fasted, N=13, linear mixed-effects model, read-out: AUCinf, GLSM", "result": 13300, "unit": "ng·h/mL"}, {"measurement": "AUC(0-t)", "setting": "[2]; fasted, N=13, linear mixed-effects model, read-out: AUClast, GLSM", "result": 12900, "unit": "ng·h/mL"}, {"measurement": "Cmax", "setting": "[2]; fasted, N=13, linear mixed-effects model, read-out: Cmax, GLSM", "result": 1550, "unit": "ng/mL"}, {"measurement": "AUC(0-inf)", "setting": "[2]; fasted, N=13, read-out: AUCinf, geometric mean (Geo CV%)", "result": 13300, "unit": "ng·h/mL"}, {"measurement": "AUC(0-inf)", "setting": "[2]; fasted, N=13, read-out: AUCinf, mean (SD)", "result": 13800, "unit": "ng·h/mL"}, {"measurement": "AUC(0-t)", "setting": "[2]; fasted, N=13, read-out: AUClast, geometric mean (Geo CV%)", "result": 12800, "unit": "ng·h/mL"}, {"measurement": "AUC(0-t)", "setting": "[2]; fasted, N=13, read-out: AUClast, mean (SD)", "result": 13300, "unit": "ng·h/mL"}, {"measurement": "Cmax", "setting": "[2]; fasted, N=13, read-out: Cmax, geometric mean (Geo CV%)", "result": 1530, "unit": "ng/mL"}, {"measurement": "Cmax", "setting": "[2]; fasted, N=13, read-out: Cmax, mean (SD)", "result": 1600, "unit": "ng/mL"}, {"measurement": "AUC(0-inf)", "setting": "[2]; fed (high-fat breakfast), N=13, linear mixed-effects model, read-out: AUCinf, GLSM", "result": 18900, "unit": "ng·h/mL"}, {"measurement": "AUC(0-t)", "setting": "[2]; fed (high-fat breakfast), N=13, linear mixed-effects model, read-out: AUClast, GLSM", "result": 18700, "unit": "ng·h/mL"}, {"measurement": "Cmax", "setting": "[2]; fed (high-fat breakfast), N=13, linear mixed-effects model, read-out: Cmax, GLSM", "result": 2690, "unit": "ng/mL"}, {"measurement": "AUC(0-inf)", "setting": "[2]; fed (high-fat breakfast), N=13, read-out: AUCinf, geometric mean (Geo CV%)", "result": 18800, "unit": "ng·h/mL"}, {"measurement": "AUC(0-inf)", "setting": "[2]; fed (high-fat breakfast), N=13, read-out: AUCinf, mean (SD)", "result": 19600, "unit": "ng·h/mL"}, {"measurement": "AUC(0-t)", "setting": "[2]; fed (high-fat breakfast), N=13, read-out: AUClast, geometric mean (Geo CV%)", "result": 18600, "unit": "ng·h/mL"}, {"measurement": "AUC(0-t)", "setting": "[2]; fed (high-fat breakfast), N=13, read-out: AUClast, mean (SD)", "result": 19400, "unit": "ng·h/mL"}, {"measurement": "Cmax", "setting": "[2]; fed (high-fat breakfast), N=13, read-out: Cmax, geometric mean (Geo CV%)", "result": 2660, "unit": "ng/mL"}, {"measurement": "Cmax", "setting": "[2]; fed (high-fat breakfast), N=13, read-out: Cmax, mean (SD)", "result": 2780, "unit": "ng/mL"}, {"measurement": "delay of oral absorption with food", "setting": "[2]", "result": "about 2 hours"}, {"measurement": "AUC(0-inf)", "setting": "[3]; 500 mg, fasted without pantoprazole, N=12, linear mixed-effects model, read-out: AUCinf, GLSM", "result": 13300, "unit": "ng·h/mL"}, {"measurement": "AUC(0-t)", "setting": "[3]; 500 mg, fasted without pantoprazole, N=12, linear mixed-effects model, read-out: AUClast, GLSM", "result": 12800, "unit": "ng·h/mL"}, {"measurement": "Cmax", "setting": "[3]; 500 mg, fasted without pantoprazole, N=12, linear mixed-effects model, read-out: Cmax, GLSM", "result": 1530, "unit": "ng/mL"}, {"measurement": "AUC(0-inf)", "setting": "[3]; 500 mg, fasted without pantoprazole, read-out: AUCinf, geometric mean (Geo CV%)", "result": 13300, "unit": "ng·h/mL"}, {"measurement": "AUC(0-inf)", "setting": "[3]; 500 mg, fasted without pantoprazole, read-out: AUCinf, mean (SD)", "result": 13800, "unit": "ng·h/mL"}, {"measurement": "AUC(0-t)", "setting": "[3]; 500 mg, fasted without pantoprazole, read-out: AUClast, geometric mean (Geo CV%)", "result": 12800, "unit": "ng·h/mL"}, {"measurement": "AUC(0-t)", "setting": "[3]; 500 mg, fasted without pantoprazole, read-out: AUClast, mean (SD)", "result": 13300, "unit": "ng·h/mL"}, {"measurement": "Cmax", "setting": "[3]; 500 mg, fasted without pantoprazole, read-out: Cmax, geometric mean (Geo CV%)", "result": 1530, "unit": "ng/mL"}, {"measurement": "Cmax", "setting": "[3]; 500 mg, fasted without pantoprazole, read-out: Cmax, mean (SD)", "result": 1600, "unit": "ng/mL"}, {"measurement": "AUC(0-inf)", "setting": "[3]; fasted with pantoprazole 40 mg QD, N=12, linear mixed-effects model, read-out: AUCinf, GLSM", "result": 13800, "unit": "ng·h/mL"}, {"measurement": "AUC(0-t)", "setting": "[3]; fasted with pantoprazole 40 mg QD, N=12, linear mixed-effects model, read-out: AUClast, GLSM", "result": 13400, "unit": "ng·h/mL"}, {"measurement": "Cmax", "setting": "[3]; fasted with pantoprazole 40 mg QD, N=12, linear mixed-effects model, read-out: Cmax, GLSM", "result": 1560, "unit": "ng/mL"}, {"measurement": "AUC(0-inf)", "setting": "[3]; fasted with pantoprazole 40 mg QD, read-out: AUCinf, geometric mean (Geo CV%)", "result": 13300, "unit": "ng·h/mL"}, {"measurement": "AUC(0-inf)", "setting": "[3]; fasted with pantoprazole 40 mg QD, read-out: AUCinf, mean (SD)", "result": 13700, "unit": "ng·h/mL"}, {"measurement": "AUC(0-t)", "setting": "[3]; fasted with pantoprazole 40 mg QD, read-out: AUClast, geometric mean (Geo CV%)", "result": 13000, "unit": "ng·h/mL"}, {"measurement": "AUC(0-t)", "setting": "[3]; fasted with pantoprazole 40 mg QD, read-out: AUClast, mean (SD)", "result": 13400, "unit": "ng·h/mL"}, {"measurement": "Cmax", "setting": "[3]; fasted with pantoprazole 40 mg QD, read-out: Cmax, geometric mean (Geo CV%)", "result": 1540, "unit": "ng/mL"}, {"measurement": "Cmax", "setting": "[3]; fasted with pantoprazole 40 mg QD, read-out: Cmax, mean (SD)", "result": 1580, "unit": "ng/mL"}, {"measurement": "effect of pantoprazole on RBN-3143 exposure/PK", "setting": "[3]; pantoprazole 40 mg QD pre-treatment, RBN-3143 500 mg", "result": "did not impact; also recorded: no effect; also recorded: did not alter; also recorded: unaffected"}, {"measurement": "metabolizing enzyme", "setting": "[4]", "result": "predominantly metabolized by cytochrome P4503A4 (CYP3A4)"}]}]}
